Read-outs that look alike come from different tables or passages of the source.
Columns and labels:
Format in all cases: cell-based
[1] = biological target: T1, GATA4 transcriptional activity (Mus musculus, UniProt Q08369); assay: GATA4 luciferase reporter assay (tandem GATA-site reporter, COS-1 cells); conditions: COS-1
T1 construct: expressed in transfected cells; host or cells: COS-1

COS-1 cells [2] = assay: LDH assay (necrosis)
Source text: (§1) To investigate the toxicity as a potential cause of decreased or increased activity in luciferase reporter gene assays, we tested a set of 40 active compounds in the COS-1 cell line used for the luciferase assays. Concentration-dependent toxic effects were investigated using the lactate dehydrogenase (LDH) assay to detect necrosis and the 3-(4,5-dimethylthiazol-2-yl)-2,5-diphenyltetrazolium bromide (MTT) assay as a measure of cell viability. […] For the data analysis, compounds were classified as toxic (Figures 5 and 7) if they induced a >10% decrease in cell viability in the MTT assay at the concentration of 10 μM. The most toxic compounds (35a, 35d, 54, 58, and 63–65) in the MTT assay all contained a phenyl substituent in the southern part ring, while the ortho-nitrophenyl-derivative 39g and the phenyl-substituted thiophene 47t were nontoxic. Higher flexibility in the central parts of the ethers (35a, 35d) and N-acylated amines (58, 64) might contribute to their toxicity, because less rigid compounds are more likely to have affinity to various biological targets. Such interactions can cause toxicity. To confirm and validate the results from MTT assays, we tested three nontoxic (2, 47s, and 72) and three toxic (1, 35a, and 58) compounds in a cell viability assay measuring intracellular ATP content.
(§2) Figure 5 Effects of selected compounds on COS-1 cell viability. (A) Compound-induced necrosis was quantified with the LDH assay after a 24-h compound exposure. The data are presented as cytotoxicity percentage (% of maximal LDH release). (B) Cell viability was analyzed with the MTT assay after a 24-h compound exposure. (A,B) The data are means from 2–3 independent experiments with 3 replicate wells in each and are presented as % of control (vehicle-treated cells). The compounds have been grouped on the basis of the structure of the central part: a, amide; b, ether; c, N-acylated amine; d, amine; and e, imine. (C) The effects of selected compounds on cell viability as determined by ATP content after a 24-h compound exposure. The data are mean + SEM from three independent experiments and are presented as % of vehicle-treated cells.
(§3) For toxicity screening, COS-1 cells were cultured in DMEM (Sigma-Aldrich, Steinheim, Germany) supplemented with 10% fetal bovine serum, 100 U/mL penicillin, and 100 μg/mL streptomycin (all from Gibco, Thermo Scientific) at 37 °C with 5% CO2. The cells were plated on 96-well plates at 10 000 cells/well and exposed to test compounds at a concentration range of 1–30 μM on the following day. After a 24-h compound treatment, lactate dehydrogenase (LDH) and 3-(4,5-dimethylthiazol-2-yl)-2,5-diphenyltetrazolium bromide (MTT) assays were carried out as described previously.[48] Briefly, LDH activity was determined from 50 μL samples of cell culture medium, to which 50 μL of substrate solution [1.3 mM β-nicotinamide-adenine dinucleotide, 660 μM iodonitrotetrazolium, 54 mM L(+)-lactic acid, and 280 μM phenazine methosulfate in 0.2 M Tris-HCl, pH 8.2, all from Sigma-Aldrich] was added, and the plate was incubated for 30 min at room temperature. The reaction was stopped with acetic acid (final concentration 333 mM), and absorbance was measured at 490 nm. The absorbance values of the samples were normalized to maximal LDH release and spontaneous LDH release determined on the same plate. Mitochondrial metabolic activity was quantified by incubating the cells with 0.5 mg/mL MTT (from Sigma-Aldrich) for 2 h at 37 °C with 5% CO2, whereafter culture medium was removed and formazan crystals were dissolved in DMSO. The absorbance was measured at 550 nm, and absorbance at 650 nm was subtracted as background.

[3] = biological target: T2, GATA4–NKX2-5 transcriptional synergy (Mus musculus, UniProt P42582+Q08369); assay: GATA4–NKX2-5 transcriptional synergy luciferase reporter assay (3xNKE reporter, COS-1 cells); conditions: COS-1
T2 construct: expressed in transfected cells; host or cells: COS-1

COS-1 cells [4] = assay: MTT assay (cell viability); conditions: for MTT.1µM / MTT.3µM / MTT.10µM / MTT.30µM: cell viability
Source text: as §1, §2, §3

[5] = biological target: T3, NKX2-5 transcriptional activity (Mus musculus, UniProt P42582); assay: NKX2-5 luciferase reporter assay (3xNKE reporter, COS-1 cells); conditions: COS-1; for activity at 3 µM: read-out: NKX.3µM; for activity at 10 µM: read-out: NKX.10µM
T3 construct: expressed in transfected cells; host or cells: COS-1

[6] = luciferase reporter activity relative to control
[7] = luciferase reporter activity, % of control

T3 sequence (P42582 whole entry): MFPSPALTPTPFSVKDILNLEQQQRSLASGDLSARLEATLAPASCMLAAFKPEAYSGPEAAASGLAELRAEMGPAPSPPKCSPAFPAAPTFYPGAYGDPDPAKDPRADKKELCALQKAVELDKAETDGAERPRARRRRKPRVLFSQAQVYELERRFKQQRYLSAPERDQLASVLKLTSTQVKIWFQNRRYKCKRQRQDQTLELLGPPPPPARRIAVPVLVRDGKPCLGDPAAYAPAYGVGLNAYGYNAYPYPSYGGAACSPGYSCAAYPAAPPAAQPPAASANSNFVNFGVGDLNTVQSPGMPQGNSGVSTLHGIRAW
T1 sequence (Q08369 whole entry): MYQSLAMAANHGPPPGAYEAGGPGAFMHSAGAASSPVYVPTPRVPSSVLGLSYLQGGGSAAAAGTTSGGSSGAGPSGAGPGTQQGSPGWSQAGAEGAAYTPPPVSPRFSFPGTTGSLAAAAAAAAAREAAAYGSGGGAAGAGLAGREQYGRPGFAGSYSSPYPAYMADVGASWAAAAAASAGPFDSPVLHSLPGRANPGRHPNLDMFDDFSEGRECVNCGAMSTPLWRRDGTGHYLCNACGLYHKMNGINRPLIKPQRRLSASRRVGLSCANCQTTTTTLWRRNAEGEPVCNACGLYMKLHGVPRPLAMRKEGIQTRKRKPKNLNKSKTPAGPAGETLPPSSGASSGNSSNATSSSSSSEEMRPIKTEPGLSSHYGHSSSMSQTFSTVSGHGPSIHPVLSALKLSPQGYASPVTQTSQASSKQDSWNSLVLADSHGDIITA
T2 sequence (Q08369 whole entry): as above
T2 sequence (P42582 whole entry): as the sequence (P42582 whole entry) above

Structure (SMILES)	activity at 3 µM [1, 6] [%]	activity at 10 µM [1, 6] [%]	activity at 3 µM [3, 6] [%]	activity at 10 µM [3, 6] [%]	activity at 3 µM [5, 6] [%]	activity at 10 µM [5, 6] [%]	LDH.1µM (COS-1 cells [2])	LDH.3µM (COS-1 cells [2])	LDH.10µM (COS-1 cells [2])	LDH.30µM (COS-1 cells [2])	MTT.1µM (COS-1 cells [4])	MTT.3µM (COS-1 cells [4])	MTT.10µM (COS-1 cells [4])	MTT.30µM (COS-1 cells [4])	further results
COc1ccc(-c2cc(N)nn2C(=O)c2c(-c3ccccc3)noc2C)cc1 [SI137, [3-Amino-5-(4-methoxyphenyl)-1H-pyrazol-1-yl] (5-methyl-3-phenylisoxazol-4-yl) methanone]	85.3	76.5	90.6	72.1	88	65.2	3.49	2.98	0.2	-2.71	100.57	105.12	104.9	96.15	–
CN(C)c1ccc(NCc2c[nH]nc2-c2ccc(F)cc2)cc1 [SI78]	83.7	49.1	67.2	42.2	70.7	43	0.7	1	-1.06	-2.54	105.6	102.53	103.53	103.47	–
CCN(CC)c1ccc(NC(=O)c2csc([N+](=O)[O-])c2)cc1 [Compound 47u]	28.7	–	32.3	24.5	37.8	–	7.78	6.19	2.98	1.83	105.56	102.26	97.2	88.36	–
CCN(CC)c1ccc(NC(=O)c2c(-c3ccc(F)cc3)noc2C)cc1 [Compound 39d, N-[4-(Diethylamino)phenyl]-3-(4-fluorophenyl)-5-methylisoxazole-4-carboxamide]	–	–	–	–	–	–	–	–	–	–	–	–	–	–	activity at 3 µM [1, 7]: 94.4%; LDH.1µM (COS-1 cells [2]; COS-1 cells): 3.12; LDH.3µM (COS-1 cells [2]; COS-1 cells): -0.19; LDH.10µM (COS-1 cells [2]; COS-1 cells): -0.49; LDH.30µM (COS-1 cells [2]; COS-1 cells): 2.51; activity at 3 µM [3, 7]: 61.4%; MTT.1µM (COS-1 cells [4]; COS-1 cells): 99.41%; MTT.3µM (COS-1 cells [4]; COS-1 cells): 97.69%; MTT.10µM (COS-1 cells [4]; COS-1 cells): 91.72%; MTT.30µM (COS-1 cells [4]; COS-1 cells): 87.25%; activity at 3 µM [5, 7]: 73.3%
CCN(CC)c1ccc(NC(=O)c2cc(C)oc2-c2ccccc2)cc1 [Compound 54]	72.4	–	46	35.4	60.8	–	1.02	0.88	-0.26	3.27	97.73	83.61	74.16	71.09	toxicity class in the MTT assay (COS-1 cells [4]; 24-h exposure, classified at 10 μM): most toxic

The next lines start with results.

activity at 3 µM [1, 6] [%]	activity at 10 µM [1, 6] [%]	activity at 3 µM [3, 6] [%]	activity at 10 µM [3, 6] [%]	activity at 3 µM [5, 6] [%]	activity at 10 µM [5, 6] [%]	Structure (SMILES)	LDH.1µM (COS-1 cells [2])	LDH.3µM (COS-1 cells [2])	LDH.10µM (COS-1 cells [2])	LDH.30µM (COS-1 cells [2])	MTT.1µM (COS-1 cells [4])	MTT.3µM (COS-1 cells [4])	MTT.10µM (COS-1 cells [4])	MTT.30µM (COS-1 cells [4])	further results
82.8	–	84.5	–	97.2	–	C=CCN(Cc1ccc(N(CC)CC)cc1)c1c(-c2ccccc2)noc1C [Compound 30b]	-1.6	-0.27	1.75	3.61	104.18	97.12	96.41	84.34	–
107	74.1	84.8	53.2	99.9	53.9	CCN(CC)c1ccc(/C=N/c2c(-c3ccccc3)noc2C)c(O)c1 [SI44]	2.83	1.4	-0.96	0.36	105.22	100.5	90.69	89.22	–
92.4	–	100	–	113	–	CCN(CC)c1ccc(CN(C(=O)C(F)(F)F)c2c(-c3ccccc3)noc2C)cc1 [Compound 30c]	1.2	0	-0.99	-1.08	100.8	97.78	91.24	75.4	–
